Experimental findings from patent publication US20210046042A1, “SUBSTANCES AND COMPOSITIONS FOR THE USE IN THE TREATMENT OF ENDOMETRIOSIS AND ENDOMETRIOSIS ASSOCIATED SYMPTOMS” (SISTEMI SALUTE S.R.L., priority 2017, published 2021) are described below.

For the series, the system named is patients affected by endometriosis, IV stage (deep endometriosis, adenomyosis and ovarian endometriosis). Kind of series: Clinical study on patients affected by endometriosis treated with Luteolin. It is filed as in vivo, human. The procedure: Clinical Study on Patients Affected by Endometriosis Treated with […]
A composition in powder for oral administration containing Luteolin (62.5 mg of extract of shells of peanuts standardized to 80% Luteolin) equal to 50 mg was prepared.
18 patients affected by endometriosis, IV stage, were identified, all of them with deep endometriosis, adenomyosis and ovarian endometriosis (endometriosis ovarian cysts larger than 3 cm), the disease diagnosis was placed with diagnostic protocol including vaginal and rectal explorations for the diagnosis of deep endometriosis, Nuclear magnetic resonance of pelvis with examination of resonance parameters for the diagnosis of adenomyosis, thickness of the neck-body junction area (JZ) of the uterus larger than 12 mm, exclusion criterion for adenomyosis thickness smaller than 8 mm, examination of the myometrium structure, examination of the myometrium thicknesses both of front and rear wall, hematic examinations comprising the marker Ca 125, the dosage of 17B-estradiol and of testosterone.
The first group constituted by 18 patients ingested 2 capsules per day, every twelve hours, for 45 days of the composition containing Luteolin 50 mg.
For the disease evaluation:
The dosage of 17B-estradiol
The dosage of testosterone
The Rectal examination for deep endometriosis
The rectal examination for deep endometriosis
The nuclear magnetic resonance of pelvis with contrast medium (gadolinium) were performed.
INCLUSION CRITERIA for experimentation
Not ingestion of pain-relieving drugs
Absence of anti-inflammatory drugs
Positive Vaginal examination
Positive rectal examination

[1] abbreviates: 21st day of treatment, basal JZ>12 mm.
The mark [2] stands for this setting: study group, 21st day of treatment, basal VAS>=7.

Entries after “also recorded” stand apart in the source; their conditions may differ.

As for `O=c1cc(-c2ccc(O)c(O)c2)oc2cc(O)cc(O)c12` [Luteolin, 2-(3,4-dihydroxyphenyl)-,5,7dihydroxy-4-chromenone], the “Serum dosage of testosterone average value of the sample” value (21st day of treatment, basal 0.13 ng/ml) is 0.15 ng/mL. In addition, under setting [1], the “RMN Adenomyosis JZ between 12 and 8 mm” value was 5%; the “RMN Adenomyosis JZ<8 mm” value came to 95%. The “adenomyosis JZ” value (Luteolin 50 mg oral twice a day, 18 patients) was less than 12 mm. The “disease parameters (deep endometriosis, adenomyosis, ovarian endometriosis)” value (Luteolin 50 mg oral twice a day, 18 patients, IV stage) was “quick reduction; also recorded: quick decrease”. The “average maximum diameter of the ovarian cysts” value (Luteolin 50 mg oral twice a day, 18 patients, from cm 5.34) is given as 2.14 cm. For the same compound, the “side effects / voluntary suspensions of the treatment” value (Luteolin 50 mg oral twice a day, 45 days) is given as “No side effects”. Also, the “antigen marker Ca 125 (in words)” value (Luteolin 50 mg twice a day, all treated patients) is reported as “reduced; also recorded: negativization”. For the same compound, the “RMN ovarian cysts weighted average (maximum diameter)” value (after 21 days of therapy, basal cm 5.34) came out at 2.14. Further, under “after five days from the beginning of administration, constant for 45 days”, the “regression of the symptoms” value is recorded as “almost disappeared”. Besides, the “17 Beta-Estradiol dosage average value of the sample” value (serum, 21st day of period, 21st day of treatment, basal 199 pg/ml) was 196 pg/mL. Also, the “Ca 125 dosage: average value” (serum, 21st day of treatment, basal 72.6 UI/ml) came out at 32.1 UI/ml. For the setting “study group, 21st day of treatment, Luteolin 50 mg oral twice a day, basal 21%”, this compound displayed a Headache of 11%. Under “study group, 21st day of treatment, Luteolin 50 mg oral twice a day, basal 23%”, this compound registered a Cystitis of 5%. For the same compound, under setting [2], the “Chronic pelvic pain VAS<3” value is listed as 100, the “Dysmenorrhea VAS<3” value worked out at 100 and the “Dyspareunia VAS<=3” value came out at 100.
